Conditions: Liquid

CCn1cc[n+](C)c1.O=S(=O)([N-]S(=O)(=O)C(F)(F)F)C(F)(F)F
mass density [kg/m3]
Conditions	293.15 K	303.15 K	313.15 K	323.15 K	333.15 K	343.15 K	353.15 K	393.15 K
100 kPa	1526	1514	1503	1493	1482	1472	1461	1424
1000 kPa	1526	1515	1504	1493	1483	1472	1462	1424
2000 kPa	1527	1516	1505	1494	1483	1473	1463	1425
3000 kPa	1528	1517	1506	1495	1484	1474	1464	1426
4000 kPa	1528	1517	1506	1496	1485	1475	1465	1427
5000 kPa	1529	1518	1507	1496	1486	1476	1466	1428
7500 kPa	1531	1520	1509	1498	1488	1478	1468	1431
10000 kPa	1533	1522	1511	1500	1490	1480	1470	1433
15000 kPa	1536	1525	1515	1504	1494	1484	1474	1438
20000 kPa	1540	1529	1518	1508	1498	1488	1478	1443
25000 kPa	1543	1532	1522	1512	1502	1492	1483	1448
30000 kPa	1547	1536	1526	1516	1506	1496	1487	1453

CCCCCCCCn1cc[n+](C)c1.O=S(=O)([N-]S(=O)(=O)C(F)(F)F)C(F)(F)F
mass density [kg/m3]
Conditions	293.15 K	303.15 K	313.15 K	323.15 K	333.15 K	343.15 K	353.15 K	393.15 K
100 kPa	1328	1315	1305	1296	1286	1278	1269	1236
1000 kPa	1328	1316	1306	1296	1287	1278	1270	1237
2000 kPa	1329	1317	1307	1297	1288	1279	1270	1238
3000 kPa	1330	1317	1307	1298	1289	1280	1271	1239
4000 kPa	1330	1318	1308	1299	1289	1281	1272	1240
5000 kPa	1331	1319	1309	1299	1290	1282	1273	1241
7500 kPa	1333	1321	1311	1301	1292	1284	1275	1243
10000 kPa	1334	1322	1312	1303	1294	1286	1277	1246
15000 kPa	1338	1326	1316	1307	1298	1290	1282	1251
20000 kPa	1341	1329	1320	1311	1302	1294	1286	1256
25000 kPa	1345	1333	1324	1315	1306	1298	1290	1261
30000 kPa	1348	1337	1327	1319	1310	1303	1294	1266

CCn1cc[n+](C)c1.F[B-](F)(F)F [1-ethyl-3-methylimidazolium tetrafluoroborate]
mass density [kg/m3]
Conditions	293.15 K	303.15 K	313.15 K	323.15 K	333.15 K	343.15 K	353.15 K	393.15 K
100 kPa	1305	1296	1288	1280	1272	1264	1257	1229
1000 kPa	1305	1296	1288	1280	1272	1265	1257	1230
2000 kPa	1306	1297	1289	1281	1273	1265	1258	1230
3000 kPa	1306	1297	1289	1281	1273	1266	1258	1231
4000 kPa	1307	1298	1290	1282	1274	1266	1259	1231
5000 kPa	1307	1298	1290	1282	1274	1267	1259	1232
7500 kPa	1308	1299	1291	1283	1275	1268	1261	1233
10000 kPa	1309	1300	1292	1284	1277	1269	1262	1235
15000 kPa	1311	1303	1295	1287	1279	1272	1264	1238
20000 kPa	1313	1305	1297	1289	1281	1274	1267	1240
25000 kPa	1316	1307	1299	1291	1284	1277	1269	1243
30000 kPa	1318	1309	1301	1294	1286	1279	1272	1246

From the NIST ThermoML archive (doi:10.1021/je700205n)
